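Each compound was tested at five concentrations against cells in 96-well plates for 48 hours. GI50: concentration for 50% inhibition of growth.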 Activity calls are given as the source filed them. Cut-off read from the data, not from the text of the source: active = GI50 up to about 1.1 µM and inactive = higher.
Columns and labels:
Experiment in all cases: inhibition of tumour cell growth, NCI panel, 48 h
SR = system: SR
ACHN = system: ACHN
NCI-H522 = system: NCI-H522
NCI-H460 = system: NCI-H460
MOLT-4 = system: MOLT-4
SF-268 = system: SF-268
OVCAR-8 = system: OVCAR-8
SK-MEL-28 = system: SK-MEL-28
SNB-19 = system: SNB-19
HCC 2998 = system: HCC 2998
NCI/ADR-RES = system: NCI/ADR-RES
MDA-N = system: MDA-N
TK-10 = system: TK-10
BT-549 = system: BT-549
M14 = system: M14
A498 = system: A498
786-0 = system: 786-0
RXF 393 = system: RXF 393
MCF7 = system: MCF7
DMS-114 = system: DMS-114

Row | SMILES | GI50 (SR) | GI50 (ACHN) | GI50 (NCI-H522) | GI50 (NCI-H460) | GI50 (MOLT-4) | GI50 (SF-268) | GI50 (OVCAR-8) | GI50 (SK-MEL-28) | GI50 (SNB-19) | GI50 (HCC 2998) | GI50 (NCI/ADR-RES) | GI50 (MDA-N) | GI50 (TK-10) | GI50 (BT-549) | GI50 (M14) | GI50 (A498) | GI50 (786-0) | GI50 (RXF 393) | GI50 (MCF7) | GI50 (DMS-114)
1 | CC(=O)O[C@H]1CC[C@]2(C=O)[C@H]3CC[C@]4(C)[C@@H](C5=CC(=O)OC5)CC[C@]4(O)[C@@H]3CC[C@]2(O)C1 [STROPHANTHIDIN ACETATE] | 0.528 µM (active) | 0.047 µM (active) | 0.0336 µM (active) | 0.0578 µM (active) | 0.0262 µM (active) | 0.171 µM (active) | 0.267 µM (active) | 0.774 µM (active) | 0.608 µM (active) | 0.325 µM (active) | 0.197 µM (active) | 0.282 µM (active) | 0.211 µM (active) | 0.144 µM (active) | 0.416 µM (active) | 0.264 µM (active) | 0.212 µM (active) |  |  | 
2 | O=c1c(C(c2ccccn2)c2c(O)oc3cc(O)ccc3c2=O)c(O)oc2cc(O)ccc12 | > 100 µM (inactive) | > 100 µM (inactive) | > 100 µM (inactive) | > 100 µM (inactive) | > 100 µM (inactive) | > 100 µM (inactive) | 44.2 µM (inactive) | > 100 µM (inactive) | > 100 µM (inactive) | > 100 µM (inactive) | > 100 µM (inactive) | > 100 µM (inactive) | > 100 µM (inactive) | > 100 µM (inactive) | > 100 µM (inactive) | > 100 µM (inactive) | > 100 µM (inactive) | > 100 µM (inactive) | > 100 µM (inactive) | 
3 | CCOC(=O)C(C(C)=O)C1CC=CC1 (centres undefined) |  | > 100 µM (inactive) |  | > 100 µM (inactive) | > 100 µM (inactive) |  | > 100 µM (inactive) | > 100 µM (inactive) | > 100 µM (inactive) | > 100 µM (inactive) |  |  | > 100 µM (inactive) |  | > 100 µM (inactive) |  | > 100 µM (inactive) | > 100 µM (inactive) |  | > 100 µM (inactive)
4 | O=C1CCCCN1 |  |  | > 1120 µM (inactive) | > 1120 µM (inactive) | 706 µM (inactive) | > 1120 µM (inactive) | > 1120 µM (inactive) | > 1120 µM (inactive) | > 1120 µM (inactive) | 333 µM (inactive) | 248 µM (inactive) |  |  |  |  | > 52 µM (inactive) |  | 272 µM (inactive) | > 1120 µM (inactive) | > 1120 µM (inactive)
5 | O=c1[nH]c(=O)n(C2CC(O)C(CO)O2)cc1C#Cc1cc(C(F)(F)F)cc(C(F)(F)F)c1 (centres undefined) | > 100 µM (inactive) | > 29.4 µM (inactive) | 25.1 µM (inactive) |  | > 26.9 µM (inactive) | 43.9 µM (inactive) |  | > 31.7 µM (inactive) | 20.1 µM (inactive) | > 32 µM (inactive) |  |  | > 100 µM (inactive) |  | > 24.8 µM (inactive) | > 100 µM (inactive) |  | 8.87 µM (inactive) |  | > 31.2 µM (inactive)
6 | O=c1cc(-c2nc3ccccc3[nH]2)[nH]c2nc(-c3nc4ccccc4[nH]3)cc(-c3ccc(Cl)cc3)c12 | 15.2 µM (inactive) | 16.6 µM (inactive) | 6.27 µM (inactive) | 16.3 µM (inactive) | 19.4 µM (inactive) | 15.8 µM (inactive) | 28.6 µM (inactive) |  | 46.3 µM (inactive) |  | 28.4 µM (inactive) | 20.5 µM (inactive) | 19.4 µM (inactive) | 35.9 µM (inactive) | 23.8 µM (inactive) |  |  | 14.5 µM (inactive) | 12.9 µM (inactive) | 
7 | O=C1Cc2c(-c3ccccc3)cc(-c3ccccc3)nc2-c2ccccc2N1 |  |  | 7.18 µM (inactive) | 4.01 µM (inactive) |  | 5.7 µM (inactive) | 3.56 µM (inactive) | 5.12 µM (inactive) | 2.78 µM (inactive) | 2.71 µM (inactive) | 3.61 µM (inactive) | > 10 µM (inactive) |  | 6.01 µM (inactive) | 3.44 µM (inactive) | 20 µM (inactive) |  | 4.61 µM (inactive) |  | 
8 | CC(=O)N1N=C(c2ccc3ccccc3c2O)CC1c1cccs1 (centres undefined) | 3.6 µM (inactive) | 15.6 µM (inactive) | 14.9 µM (inactive) | 8.49 µM (inactive) | 4.26 µM (inactive) | 12.3 µM (inactive) | 16.9 µM (inactive) | 37.2 µM (inactive) |  | 21.6 µM (inactive) | 13.6 µM (inactive) | 20.2 µM (inactive) | 25 µM (inactive) | 19.5 µM (inactive) | 14.4 µM (inactive) | 12.7 µM (inactive) |  | 15.7 µM (inactive) | 10.9 µM (inactive) | 
9 | O=NN1C(c2ccccc2)CNC(=O)CC1c1ccccc1 (centres undefined) |  |  | 20.3 µM (inactive) | 36.2 µM (inactive) | 52.7 µM (inactive) | 78.5 µM (inactive) | 65.5 µM (inactive) | 57.3 µM (inactive) | 48.5 µM (inactive) | 27.3 µM (inactive) | 28.7 µM (inactive) |  |  |  |  | 35.6 µM (inactive) |  | 22.2 µM (inactive) | 24.9 µM (inactive) | 22.7 µM (inactive)
10 | NC12CCC(CC1=O)C2 (centres undefined) | > 100 µM (inactive) | > 100 µM (inactive) |  |  | > 100 µM (inactive) | > 100 µM (inactive) | > 100 µM (inactive) | > 100 µM (inactive) |  | > 100 µM (inactive) | > 100 µM (inactive) | > 100 µM (inactive) | > 100 µM (inactive) |  | > 100 µM (inactive) |  |  |  | > 100 µM (inactive) | 
11 | O=C1CSC(C(/N=N/c2ccc(Cl)cc2)c2nc3ccccc3[nH]2)=N1 (centres undefined) | 76.4 µM (inactive) | 28.7 µM (inactive) | 25.9 µM (inactive) | 33 µM (inactive) | 6.79 µM (inactive) | > 100 µM (inactive) | 82.8 µM (inactive) | 35.5 µM (inactive) | 50.6 µM (inactive) | 25.6 µM (inactive) |  |  | > 100 µM (inactive) |  | > 100 µM (inactive) | > 100 µM (inactive) |  |  |  | 26.2 µM (inactive)
12 | COc1ccc(-c2c3c(nc4nc(SC)nc(SC)c24)CCCC3)cc1OC | 8.07 µM (inactive) | 72.4 µM (inactive) | 31.6 µM (inactive) | 29.2 µM (inactive) | 33.4 µM (inactive) | 82.2 µM (inactive) |  | 59.7 µM (inactive) | > 100 µM (inactive) | > 100 µM (inactive) |  | 29.9 µM (inactive) | 38.5 µM (inactive) | > 100 µM (inactive) | 81.7 µM (inactive) | > 100 µM (inactive) |  | 25.9 µM (inactive) | 41.5 µM (inactive) | 

Reference: ChEMBL document CHEMBL1201862, “PubChem BioAssay data set” (2004)
